Measurements: patent publication US7767671B2, “3-Quinolinecarbonitrile protein kinase inhibitors” (Wyeth, priority 2004, dated 2010)

Legend:
[1] = system: Rat2 fibroblasts transformed with v-Src/Hu c-Src fusion gene; experiment: Anchorage independent Src-transformed fibroblast proliferation; format: cell-based; details: Rattus norvegicus, 120 h, suspension growth, MTS on Day 5, read-out: Src TF prolif IC50
Method: Anchorage Independent Src-transformed Fibroblast Proliferation Test Procedure: Rat2 fibroblasts stably transformed with a plasmid containing a CMV promotor controlled v-Src/Hu c-Src fusion gene in which the catalytic domain of human c-Src is inserted in place of the v-Src catalytic domain in the v-Src gene are used for the measurement of src dependent suspension growth. Ultra-low cluster plates (Costar #3474) are seeded with 10,000 cells per well on Day 1.

[2] = system: HT-29 cells; experiment: HT-29 cell proliferation on plastic (MTS); format: cell-based; details: Homo sapiens; HT-29 cells on plastic, MTS on day five; read-out: HT-29 prolif IC50
Method: Cell Proliferation Test Procedure for Inhibitors of Src Kinase
HT-29 cells: Compound effectiveness at inhibiting cell proliferation on plastic is performed in a 96-well format by plating 5000 cells per well in appropriate medium on day one, followed by compound addition on day 2 in serial two-fold dilutions. On day five, compound is washed away and medium containing MTS reagent (Promega) is added. Relative cell number is determined by reading the absorbance at 490 nm of a dye produced by an NAD-dependent cellular enzymatic reaction.

[3] = molecular target: T1, p60c-src (Homo sapiens, UniProt P12931); experiment: Src kinase test procedure (ELISA); format: biochemical; details: cdc2 substrate peptide, (a) = average of two runs
T1 construct: purchased Upstate Biotechnologies
T1 sequence (P12931 whole entry): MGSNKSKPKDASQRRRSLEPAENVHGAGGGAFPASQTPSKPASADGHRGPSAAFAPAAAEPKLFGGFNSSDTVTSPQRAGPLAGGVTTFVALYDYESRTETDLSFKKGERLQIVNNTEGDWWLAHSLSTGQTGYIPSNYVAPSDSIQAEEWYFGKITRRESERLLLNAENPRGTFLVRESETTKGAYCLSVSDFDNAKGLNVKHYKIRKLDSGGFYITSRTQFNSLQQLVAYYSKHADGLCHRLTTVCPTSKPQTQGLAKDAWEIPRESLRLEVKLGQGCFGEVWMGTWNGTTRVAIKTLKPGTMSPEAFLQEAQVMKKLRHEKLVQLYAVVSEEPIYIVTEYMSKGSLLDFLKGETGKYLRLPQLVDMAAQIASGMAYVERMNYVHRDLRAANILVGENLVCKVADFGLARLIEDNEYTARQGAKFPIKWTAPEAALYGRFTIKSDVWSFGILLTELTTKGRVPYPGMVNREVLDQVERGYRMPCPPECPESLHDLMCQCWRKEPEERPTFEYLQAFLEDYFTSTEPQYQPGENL
Method: Src Kinase Test Procedure
Inhibitors of p60^c-src (partially purified preparation purchased from Upstate Biotechnologies) tyrosine kinase activity are analyzed in an Elisa format. The Boehringer Mannheim Tyrosine Kinase Assay Kit (Catalog number 1-534505) with a cdc2 substrate peptide containing Tyr15 is used for the assay. HRP-conjugated anti-phosphotyrosine is used to detect phosphorylated peptide via a color reaction. Conditions recommended by the manufacturer are employed.
Reaction conditions: Five microliter aliquots of each compound prepared fresh at the time of the assay are added as a solution in 10 mM HEPES pH 7.5, 10% DMSO to the reaction well. Thirty-five microliters of reaction mix containing Src, buffer and peptide/bovine serum albumin mix are added to the compound wells and incubated at 30° C. for 10 minutes (reaction buffer: 50 mM Tris HCl pH 7.5, 10 mM MgCl2, 0.1 mM EGTA, 0.5 mM Na3VO4). The reaction is started by addition of 10 microliters of ATP, incubated at 30° C. for 1 hour, and stopped by addition of 20 microliters of 0.5M EDTA. The reaction mixture with the phosphorylated peptide is then transferred to a streptavidin-coated microtiter plate (provided in the kit) and allowed to bind for 20 minutes. Unbound peptide and reaction mixture is decanted and the plate is washed with PBS six times. Horseradish peroxidase-conjugated phosphotyrosine antibody supplied in the kit is incubated with the plate for one hour, then decanted. The plate is again ished with PBS six times. Substrate (provided in the kit) is added and absorbance at 405 nm is measured.
Activity is determined as % inhibition as calculated by the formula: (1−Abs/Abs(max))×100=% inhibition. Where multiple concentrations of the test agent are used, an IC50 (concentration which gives 50% inhibition) could be determined.

[4] = molecular target: T2, Raf and/or Mek kinase (human c-Raf, GST-MEK1) (Homo sapiens, UniProt P04049+Q02750); experiment: Raf/Mek kinase cascade assay; format: biochemical; details: c-Raf dependent activation of GST-MEK and GST-MAPK, phospho-MAPK ELISA; (a)/(b)/(c) = average of two/three/four runs
T2 construct: Sf9 insect cell lysate containing full length 6his-tagged recombinant human c-Raf; 6His; host or cells: Sf9 insect cells (c-Raf, used as lysate); E. coli (MEK1-GST, GST-MAPK)
T2 sequence (P04049 whole entry): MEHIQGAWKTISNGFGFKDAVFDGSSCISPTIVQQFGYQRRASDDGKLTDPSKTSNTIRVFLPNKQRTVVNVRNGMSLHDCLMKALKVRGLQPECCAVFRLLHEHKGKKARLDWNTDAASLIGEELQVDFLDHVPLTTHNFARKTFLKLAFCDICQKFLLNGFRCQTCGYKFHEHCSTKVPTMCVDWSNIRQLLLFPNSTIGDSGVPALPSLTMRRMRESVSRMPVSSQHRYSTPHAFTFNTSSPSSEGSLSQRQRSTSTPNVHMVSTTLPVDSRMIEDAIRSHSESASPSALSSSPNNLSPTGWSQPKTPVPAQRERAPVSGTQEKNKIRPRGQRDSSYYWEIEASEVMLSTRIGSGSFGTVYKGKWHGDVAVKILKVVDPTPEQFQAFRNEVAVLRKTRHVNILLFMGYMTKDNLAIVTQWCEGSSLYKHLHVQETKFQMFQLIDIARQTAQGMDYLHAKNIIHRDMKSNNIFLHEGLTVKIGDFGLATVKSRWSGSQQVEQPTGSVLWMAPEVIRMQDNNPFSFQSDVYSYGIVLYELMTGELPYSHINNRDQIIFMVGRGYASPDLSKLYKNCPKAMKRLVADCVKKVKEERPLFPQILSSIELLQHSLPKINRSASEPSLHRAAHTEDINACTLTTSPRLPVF
T2 sequence (Q02750 whole entry): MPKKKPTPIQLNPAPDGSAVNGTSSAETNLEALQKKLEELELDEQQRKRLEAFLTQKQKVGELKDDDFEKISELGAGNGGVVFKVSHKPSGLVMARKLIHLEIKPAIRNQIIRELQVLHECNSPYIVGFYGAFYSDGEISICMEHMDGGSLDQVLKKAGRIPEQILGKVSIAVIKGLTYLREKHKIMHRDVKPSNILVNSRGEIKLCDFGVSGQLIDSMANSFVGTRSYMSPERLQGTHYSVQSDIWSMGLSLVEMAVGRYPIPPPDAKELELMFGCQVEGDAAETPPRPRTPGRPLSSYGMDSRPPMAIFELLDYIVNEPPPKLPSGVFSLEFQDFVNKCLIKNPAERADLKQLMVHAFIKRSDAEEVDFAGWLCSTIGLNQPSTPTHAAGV
Method: Raf/Mek Kinase Cascade Assay Procedure
(Specific Activity: ˜200 U/ml). Human Non-active Mek-1-GST and human GST-MAP kinase (recombinant proteins produced in E. coli).
Stock Solutions Raf/Mek Cascade Assay:
• 1. Assay Dilution Buffer (ADB): 20 mM MOPS, pH 7.2, 25 mM β-glycerol phosphate, 5 mM EGTA, 1 mM sodium orthovanadate, 1 mM dithiothreitol; • 2. Magnesium/ATP Cocktail: 500 μM cold ATP and 75 mM magnesium chloride in ADB; • 3. Active Kinase: Human Active c-Raf: Use at 0.4 U per assay point; • 4. Non-active GST-MEK1: Use at 0.1 μg per assay point; and • 5. Non-active GST-p42 MAP Kinase: Use at 1.0 μg per assay point. Stock Solutions ELISA: • 1. TBST-Tris (50 mM, pH 7.5), NaCl (150 mM), Tween-20 (0.05%); • 2. Superblock (Pierce); • 3. Anti-GST Ab (Pharmacia); • 4. Anti-Phospho MAPK (Sigma); and • 5. Anti-Mouse Ab/Europium conjugate (Wallac). Assay Procedure: First Stage: c-Raf Dependent Activation of GST-MEK and GST-MAPK • 1. Add […] of ADB per assay (i.e. per well of a 96 well plate); • 2. Add 10 ml of 0.5 mM cold ATP and 75 mM magnesium chloride in ADB; • 3. Add 2 ml of c-Raf (0.4 U/assay), in conjunction with 1.6 ml non-active MEK1 (0.4 […]/assay); • 4. Add 4 ml of non-active GST-p42 MAP Kinase (1.0 mg/assay); • 5. Incubate for 60 minutes at 30° C. in a shaking incubator; • 6. Transfer this mixture to an anti-GST Ab coated 96 well plate (Nunc Immunosorb plates coated o/n with a-GST, then blocked with Pierce Superblock); • 7. Incubate for 60 minutes at 30° C. in a shaking incubator; • 8. Wash 3× with TBST, add Anti-Phospho MAPK (Sigma) (1:3000); • 9. Incubate for 60 minutes at 30° C. in a shaking incubator; • 10. Wash 3× with TBST, add Anti-Mouse Ab/Europium conjugate (Wallac) (1:500); • 11. Incubate for 60 minutes at 30° C. in a shaking incubator; • 12. Wash 3× with TBST, Read plates in Wallac Victor model Plate Reader; and • 13. Collect data analyze in Excel for single point and IC50 determinations.
Single point assay—% inhibition at […] (% Inhibition=1−cpd·treated sample/untreated control). IC50 determinations—done on compounds from single point assays with >80% inhibition. Typically, the Raf/Mek assay is run at compound concentrations from 10 μM to 1 nM in half log dilutions. (% inhibition is determined for each compound concentration). The results obtained measure Raf and/or Mek kinase inhibition, and for representative compounds of this invention are listed in Table 1.

Row | melting point | IC50 [2] | IC50 [3] | IC50 [4] | SMILES | IC50 [1]
1 | 130 to 132 °C | 2700 nM | 1 nM |  | COc1cc(Nc2c(C#N)cnc3cc(OCCCN4CCC(N5CCCCC5)CC4)c(OC)cc23)c(Cl)cc1Cl [Example 35, 7-(3-[1,4′-Bipiperidin]-1′-ylpropoxy)-4-[(2,4-dichloro-5-methoxyphenyl)amino]-6-methoxy-3-quinolinecarbonitrile] | 140 nM
2 | 108 to 112 °C | 2600 nM | 0.55 nM | 250 nM | COc1cc(Nc2c(C#N)cnc3cc(OCCCN4CCC(N5CCCC5)CC4)c(OC)cc23)c(Cl)cc1Cl [Example 34] | 466 nM
